Target: T1, mouse TRPM3α2 (mTRPM3) ion channel (Mus musculus, UniProt J9SQF3)
T1 construct: expressed in transfected cells; host or cells: flip-in HEK293
Assay: TRPM3 ion channel driven Ca2+ uptake, Fluo-4 AM assay, mTRPM3alpha2 overexpressing flip-in HEK293 cells stimulated with pregnenolone sulfate (50 μM)
Format: cell-based
Conditions: mTRPM3 overexpressing HEK293 cells stimulated with pregnenolone sulfate (50 μM), activity ranges A, B, C
Method in brief: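 Ca2+ influx via mouse TRPM3α2 was opened with pregnenolone sulfate (50 μM) and tracked by Fluo-4 AM fluorescence at 485/535 nm, read directly after adding about 2000 stably transfected HEK293 cells per well to compound. IC50 values come from percent inhibition scaled to vehicle and positive-control inhibitor signals.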

T1 sequence (J9SQF3 1-1709 isoform J9SQF3-12): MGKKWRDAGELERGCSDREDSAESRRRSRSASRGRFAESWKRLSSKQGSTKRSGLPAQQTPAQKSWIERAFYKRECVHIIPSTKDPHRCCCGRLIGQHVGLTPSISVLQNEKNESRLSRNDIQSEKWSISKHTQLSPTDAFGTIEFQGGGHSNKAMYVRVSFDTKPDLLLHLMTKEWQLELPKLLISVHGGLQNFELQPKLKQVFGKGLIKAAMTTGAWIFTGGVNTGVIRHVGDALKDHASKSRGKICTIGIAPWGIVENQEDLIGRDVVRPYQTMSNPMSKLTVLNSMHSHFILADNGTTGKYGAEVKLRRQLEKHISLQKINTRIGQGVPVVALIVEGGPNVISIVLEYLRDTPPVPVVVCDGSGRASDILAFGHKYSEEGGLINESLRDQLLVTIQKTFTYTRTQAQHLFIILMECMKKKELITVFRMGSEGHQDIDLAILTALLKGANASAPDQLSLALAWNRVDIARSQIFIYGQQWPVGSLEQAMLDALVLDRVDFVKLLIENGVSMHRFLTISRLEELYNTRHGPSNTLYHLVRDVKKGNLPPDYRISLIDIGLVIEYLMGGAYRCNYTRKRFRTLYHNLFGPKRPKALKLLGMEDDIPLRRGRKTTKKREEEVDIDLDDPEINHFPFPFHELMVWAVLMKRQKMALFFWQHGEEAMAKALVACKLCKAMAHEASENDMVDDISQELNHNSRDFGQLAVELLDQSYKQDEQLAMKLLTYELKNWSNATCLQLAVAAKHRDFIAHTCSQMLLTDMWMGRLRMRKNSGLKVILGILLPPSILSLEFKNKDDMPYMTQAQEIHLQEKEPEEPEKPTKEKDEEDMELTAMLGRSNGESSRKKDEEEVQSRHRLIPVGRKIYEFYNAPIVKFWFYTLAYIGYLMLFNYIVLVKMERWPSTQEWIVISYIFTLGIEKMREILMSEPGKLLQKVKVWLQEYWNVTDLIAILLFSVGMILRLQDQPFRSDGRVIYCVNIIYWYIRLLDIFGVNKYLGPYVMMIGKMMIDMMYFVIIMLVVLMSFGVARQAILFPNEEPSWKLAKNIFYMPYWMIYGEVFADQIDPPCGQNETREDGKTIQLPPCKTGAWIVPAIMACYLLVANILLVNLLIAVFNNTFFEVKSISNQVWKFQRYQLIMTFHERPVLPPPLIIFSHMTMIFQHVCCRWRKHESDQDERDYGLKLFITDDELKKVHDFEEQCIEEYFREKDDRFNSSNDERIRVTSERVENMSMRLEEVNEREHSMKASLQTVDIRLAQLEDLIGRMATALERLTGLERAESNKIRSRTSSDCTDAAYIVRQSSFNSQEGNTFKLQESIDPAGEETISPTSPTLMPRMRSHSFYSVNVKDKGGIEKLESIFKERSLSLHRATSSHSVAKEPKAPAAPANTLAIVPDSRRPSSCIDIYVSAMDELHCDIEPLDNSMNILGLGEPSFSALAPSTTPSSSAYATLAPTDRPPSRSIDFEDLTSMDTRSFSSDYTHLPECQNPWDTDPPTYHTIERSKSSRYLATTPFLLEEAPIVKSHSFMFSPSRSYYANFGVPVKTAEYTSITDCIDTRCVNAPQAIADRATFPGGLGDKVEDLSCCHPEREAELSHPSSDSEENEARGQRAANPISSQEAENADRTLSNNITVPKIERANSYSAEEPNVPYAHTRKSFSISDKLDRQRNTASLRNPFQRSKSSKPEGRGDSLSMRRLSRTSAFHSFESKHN

| IC50 | SMILES |
| --- | --- |
| > 20 µM | Cn1nc2ccc(OCc3ccccn3)cc2c1C(=O)NC1(CO)COC(C)(C)OC1 [Cpd 219, N-[5-(hydroxymethyl)-2,2-dimethyl-1,3-dioxan-5-yl]-2-methyl-5-[(pyridin-2-yl)methoxy]-2H-indazole-3-carboxamide] |
| < 1 µM | Cn1nc2ccc(OCc3ccccc3C(F)F)cc2c1C(=O)NC(C)(CO)C(N)=O (single isomer, unassigned) [Cpd 191 - En1] |
| 1 to 20 µM | Cn1nc2ccc(OCc3ccccc3C(F)F)cc2c1C(=O)NC1(C(N)=O)CCOC1 (single isomer, unassigned) [Cpd 175 - En2] |
| > 20 µM | Cn1nc2ccc(OCc3ccccn3)cc2c1C(=O)NC1CCNC1 (single isomer, unassigned) [Cpd 216 - En1] |
| 1 to 20 µM | Cn1nc2ccc(OCc3ccccn3)cc2c1C(=O)NCc1ncc[nH]1 [Cpd 206, N-[(1H-imidazol-2-yl)methyl]-2-methyl-5-[(pyridin-2-yl)methoxy]-2H-indazole-3-carboxamide] |
| > 20 µM | Cn1nc2ccc(OCc3ccccn3)cc2c1C(=O)NC(CO)C(F)(F)F (single isomer, unassigned) [Cpd 254 - En2] |
| < 1 µM | Cn1nc2ccc(OCc3cccnc3C(F)(F)F)cc2c1C(=O)NC1(C(N)=O)CCOC1 (single isomer, unassigned) [Cpd 178 - En2] |
| < 1 µM | Cc1ncc(COc2ccc3nn(C(C)C)c(C(=O)NC(C)(CO)C(N)=O)c3c2)s1 (single isomer, unassigned) [Cpd 195 - En2] |
| 1 to 20 µM | O=C1c2c3cc(OCc4ccccc4F)ccc3nn2CCN1CCO [Cpd 261, 9-[(2-fluorophenyl)methoxy]-2-(2-hydroxyethyl)-1H,2H,3H,4H-pyrazino[1,2-b]indazol-1-one] |
| > 20 µM | Cn1nc2ccc(OCc3ccccn3)cc2c1C(=O)NC1(CO)CC1(F)F (single isomer, unassigned) [Cpd 235 - En1, N-[2,2-difluoro-1-(hydroxymethyl)cyclopropyl]-2-methyl-5-[(pyridin-2-yl)methoxy]-2H-indazole-3-carboxamide] |
| < 1 µM | CCn1nc2ccc(OCc3ccccn3)cc2c1C(=O)NC(C)(CO)C(N)=O (single isomer, unassigned) [Cpd 188 - En2, 2-({2-ethyl-5-[(pyridin-2-yl)methoxy]-2H-indazol-3-yl}formamido)-3-hydroxy-2-methylpropanamide] |

Continued, compound first:

| SMILES | IC50 |
| --- | --- |
| Cn1nccc1COc1ccc2nn(C)c(C(=O)NC3CCN(CCO)C3=O)c2c1 (stereo not shown) [Cpd 039, N-[1-(2-hydroxyethyl)-2-oxopyrrolidin-3-yl]-2-methyl-5-[(1-methyl-1H-pyrazol-5-yl)methoxy]-2H-indazole-3-carboxamide] | > 20 µM |
| Cn1nccc1COc1ccc2nn(C)c(C(=O)NC3(C(N)=O)COC3)c2c1 [Cpd 030, N-(3-carbamoyloxetan-3-yl)-2-methyl-5-[(1-methyl-1H-pyrazol-5-yl)methoxy]-2H-indazole-3-carboxamide] | > 20 µM |
| Cc1ncsc1COc1ccc2nn(C)c(C(=O)NC3COCC3O)c2c1 (single isomer, unassigned) [Cpd 080 - Dia2] | > 20 µM |
| CN1CCC(NC(=O)c2c3cc(OCc4ccccc4F)ccc3nn2C)CC1 [Cpd 093, 5-[(2-fluorophenyl)methoxy]-2-methyl-N-(1-methylpiperidin-4-yl)-2H-indazole-3-carboxamide] | 1 to 20 µM |
| Cc1ncsc1COc1ccc2nn(C)c(C(=O)N[C@H](CO)C(N)=O)c2c1 [Cpd 113, (2R)-3-hydroxy-2-({2-methyl-5-[(4-methyl-1,3-thiazol-5-yl)methoxy]-2H-indazol-3-yl}formamido)propanamide] | 1 to 20 µM |
| Cn1nc2ccc(OCc3ccccc3F)cc2c1C(=O)NC1(CO)CCNC1=O (single isomer, unassigned) [Cpd 171 -En1] | < 1 µM |
| Cn1nc2ccc(OCc3cccnc3C(F)(F)F)cc2c1C(=O)NC1(CO)CC1 [Cpd 022, N-[1-(hydroxymethyl)cyclopropyl]-2-methyl-5-{[2-(trifluoromethyl)pyridin-3-yl]methoxy}-2H-indazole-3-carboxamide] | 1 to 20 µM |
| Cc1ncc(COc2ccc3nn(C)c(C(=O)NCC(F)F)c3c2)s1 [Cpd 150, N-(2,2-difluoroethyl)-2-methyl-5-[(2-methyl-1,3-thiazol-5-yl)methoxy]-2H-indazole-3-carboxamide] | 1 to 20 µM |
| C[C@H](NC(=O)c1c2cc(OCc3ccccc3F)ccc2nn1C)C(N)=O [Cpd 099, (2S)-2-({5-[(2-fluorophenyl)methoxy]-2-methyl-2H-indazol-3-yl}formamido)propanamide] | < 1 µM |
| Cc1ncc(COc2ccc3nn(C)c(C(=O)NC4CCN(C)CC4)c3c2)s1 [Cpd 111, 2-methyl-5-[(2-methyl-1,3-thiazol-5-yl)methoxy]-N-(1-methylpiperidin-4-yl)-2H-indazole-3-carboxamide] | > 20 µM |
| Cc1ncsc1COc1ccc2nn(C)c(C(=O)N[C@H](C)C(N)=O)c2c1 [Cpd 118, (2R)-2-({2-methyl-5-[(4-methyl-1,3-thiazol-5-yl)methoxy]-2H-indazol-3-yl}formamido)propanamide] | 1 to 20 µM |
| Cc1ncsc1COc1ccc2nn(C)c(C(=O)N[C@@H](CO)C(N)=O)c2c1 [Cpd 116, (2S)-3-hydroxy-2-({2-methyl-5-[(4-methyl-1,3-thiazol-5-yl)methoxy]-2H-indazol-3-yl}formamido)propanamide] | < 1 µM |
| CN1CCC(NC(=O)c2c3cc(OCc4ccnn4C)ccc3nn2C)C1 (stereo not shown) [Cpd 071, 2-methyl-5-[(1-methyl-1H-pyrazol-5-yl)methoxy]-N-(1-methylpyrrolidin-3-yl)-2H-indazole-3-carboxamide] | 1 to 20 µM |
| Cn1nc2ccc(OCc3cccnc3C(F)(F)F)cc2c1C(=O)NC1CCN(CC(F)(F)F)C1 (stereo not shown) [Cpd 077, 2-methyl-N-[1-(2,2,2-trifluoroethyl)pyrrolidin-3-yl]-5-{[2-(trifluoromethyl)pyridin-3-yl]methoxy}-2H-indazole-3-carboxamide] | 1 to 20 µM |
| Cn1nc2ccc(OCc3cccnc3C(F)(F)F)cc2c1C(=O)O [Cpd 122, 2-methyl-5-((2-(trifluoromethyl)pyridin-3-yl)methoxy)-2H-indazole-3-carboxylic acid] | 1 to 20 µM |
| Cc1ncsc1COc1ccc2nn(C)c(C(=O)NC3CN(C)CC3(F)F)c2c1 (stereo not shown) [Cpd 032, N-(4,4-difluoro-1-methylpyrrolidin-3-yl)-2-methyl-5-[(4-methyl-1,3-thiazol-5-yl)methoxy]-2H-indazole-3-carboxamide] | 1 to 20 µM |
| Cn1nccc1COc1ccc2nn(C)c(C(=O)NCC(C)(C)CO)c2c1 [Cpd 012, N-(3-hydroxy-2,2-dimethylpropyl)-2-methyl-5-[(1-methyl-1H-pyrazol-5-yl)methoxy]-2H-indazole-3-carboxamide] | 1 to 20 µM |
| Cn1nccc1COc1ccc2nn(C)c(C(=O)O)c2c1 [Cpd 123, 2-methyl-5-[(1-methyl-1H-pyrazol-5-yl)methoxy]-2H-indazole-3-carboxylic acid] | > 20 µM |
| Cc1ncc(COc2ccc3nn(C)c(C(=O)N[C@@H](CO)C(N)=O)c3c2)s1 [Cpd 126, (2S)-3-hydroxy-2-({2-methyl-5-[(2-methyl-1,3-thiazol-5-yl)methoxy]-2H-indazol-3-yl}formamido)propanamide] | 1 to 20 µM |
| Cc1ncc(COc2ccc3nn(C)c(C(=O)NC4(CO)CCOCC4)c3c2)s1 [Cpd 124, N-[4-(hydroxymethyl)oxan-4-yl]-2-methyl-5-[(2-methyl-1,3-thiazol-5-yl)methoxy]-2H-indazole-3-carboxamide] | > 20 µM |
